Laboratory results from patent publication US20070219172A1, “Selective testicular 11beta-HSD inhibitors for the treatment of hypergonadism associated disorders and modulation of fertility” (The Miriam Hospital, priority 2005, published 2007).
Entries after “also recorded” stand apart in the source; their conditions may differ. Read-outs that look alike come from different tables or passages of the source.

What was measured:
[1] = molecular target: T1, 11β-HSD1 Reductase (Rattus norvegicus, UniProt P16232); assay: 11β-HSD1 reductase inhibition, testicular Leydig cell homogenates; format: biochemical; conditions: result in words
T1 construct: testicular leydig cell homogenates; from tissue; host or cells: testicular Leydig cell homogenates

[2] = molecular target: T2, 11β-HSD1 Dehydrogenase (Rattus norvegicus, UniProt P16232); assay: 11β-HSD1 dehydrogenase inhibition, testicular Leydig cell homogenates; format: biochemical; conditions: result in words
T2 construct: testicular leydig cell homogenates; from tissue; host or cells: testicular Leydig cell homogenates

[3] = tested on: rat Leydig cells
[4] = molecular target: T3, 11β-HSD2 Dehydrogenase (Ovis aries, UniProt P50168); assay: 11β-HSD2 dehydrogenase inhibition, sheep kidney microsomes; format: biochemical; conditions: result in words
T3 construct: sheep kidney microsomes; from tissue; host or cells: sheep kidney microsomes
T3 sequence (P50168 1-427): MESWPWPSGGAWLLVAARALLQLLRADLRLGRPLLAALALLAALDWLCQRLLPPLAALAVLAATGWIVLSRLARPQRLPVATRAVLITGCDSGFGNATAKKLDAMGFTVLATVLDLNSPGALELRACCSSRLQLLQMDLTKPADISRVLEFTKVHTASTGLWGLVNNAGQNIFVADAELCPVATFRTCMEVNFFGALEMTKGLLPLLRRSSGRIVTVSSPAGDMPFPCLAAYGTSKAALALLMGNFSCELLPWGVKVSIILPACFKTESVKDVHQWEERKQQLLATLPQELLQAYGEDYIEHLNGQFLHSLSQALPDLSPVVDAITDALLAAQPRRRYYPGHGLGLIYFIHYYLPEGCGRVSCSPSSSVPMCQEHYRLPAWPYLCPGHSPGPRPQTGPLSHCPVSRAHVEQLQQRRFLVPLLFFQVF

[5] = molecular target: T1, 11β-HSD1 Reductase; assay: Backward reaction of 11β-HSD1 reductase in rat Leydig cells; format: cell-based
Procedure: Similar experiments were performed with 3α,5β-deoxycorticosterone and 3α,5β progesterone, neither of which posess an 11β-hydroxy group.

[6] = tested on: rat aortic rings; assay: Contractile response of rat aortic rings to phenylephrine; conditions: for amplification of the contractile response to phenylephrine by the steroid: rat aortic rings incubated with the steroid, versus controls
Procedure: Male Sprague-Dawley (150-200 g) rats were anesthetized with pentobarbital (50 mg/kg IP), and a median sternotomy was performed followed by the rapid removal of the thoracic aorta. The adventitia was removed, but the endothelium was left intact. The aorta was cut into 2-3 mm rings and individual rings were placed into a single well of a twenty four well culture plate and incubated at 37° C. under 95% O2-5% CO2. Each well contained 1 mL of DMEM/F12 containing 1% fetal bovine serum, streptomycin (100 μg/ml), penicillin (100 units/ml) and amphotericin (0.25 μg/ml). Aortic rings were incubated for 24 hours prior to contractility measurements with the following combinations of steroids, and antisense/nonsense oligonucleotides (3 μmol/L):
Antisense phosphorothioate oligonucleotides, targeted to block either 11β-HSD2 or 11β-HSD1 gene expression, were obtained from Research Genetics, Huntsville Ala. Antisense oligomers complementary to 20 bp sequences spanning the ribosome binding/translation start site were used. Oligomer sequences were: 5′-CATAACTGCCGTCCAACAGC-3′ (SEQ ID No.: 2) for 11β-HSD1 Antisense and 5′-AGCCCAGCGCTCCATGACTT-3′ (SEQ ID No. 3) for 111-HSD2 antisense. In control experiments the corresponding sense sequence was used as the nonsense oligomer. Antisense and nonsense oligomers were added directly to each well at 20 μg/10:1 sterile H20 per well for a final concentration of 3 μmol/L.
For contraction measurements, aortic rings were suspended by tungsten wires with 1 g of tension and placed in a vessel bath containing serum free DMEM/F12 media at 37° C. aerated with 95% O2-5% CO2, at pH 7.4. Vessels were equilibrated for 20 minutes and then tested with phenylephrine ([…]-10 μmol/L). […] The intensity of contraction was assessed by use of a Narishige micromanipulator and model FT03 force transducer (Grass Instrument Co. West Warwick, R.I.). Measurements were recorded on computer using the Labview 4.1 Virtual Instrument System (National Instruments, Austin, Tex.).

[7] = tested on: 11β-HSD1-reductase activity in rat aortic rings; assay: Conversion of 3H-11-dehydrocorticosterone to corticosterone by aortic rings; conditions: vascular tissue
Procedure: (ii) ^3H-11-dehydro-corticosterone (10 nmol/L)±11β-HSD1 antisense (3 μmol/L); this experiment was performed in duplicate (n=10 aortic rings per well). Control groups were incubated with the appropriate nonsense oligomer. ^3H-corticosterone in the incubation medium after 24 hrs was then measured. In this experiment, aortic rings were also analyzed for ^3H-corticosterone content. Rings from duplicate incubations (total n=20) were blotted dry, pooled and homogenized in 50% methanol using a Polytron. The homogenates were then centrifuged, extracted as below using Sep-Paks and injected onto a HPLC system for analysis.
Incubation media was collected, ran through a Sep-Pak and eluted with 3 mls of methanol, the eluate was then dried under nitrogen and reconstituted in 500:1 methanol. The aortic rings were dried and weighed. The steroids present in the eluate were separated by high-pressure liquid chromatography with a Dupont Zorbax C8 column eluted at 44° C. at a flow rate of 1 mL/min using 55% methanol for 10 minutes. Steroids were observed by monitoring radioactivity on-line with a Packard Radiomatic Flo-One/Beta Series A-500 counter connected to a Dell Optiflex 425 S/L computer. Corticosterone and 11-dehydro-corticosterone were identified by comparing their retention times with that of known standards.

[8] = whole cell preparations of rat Leydig cells

T2 sequence (P16232 whole entry): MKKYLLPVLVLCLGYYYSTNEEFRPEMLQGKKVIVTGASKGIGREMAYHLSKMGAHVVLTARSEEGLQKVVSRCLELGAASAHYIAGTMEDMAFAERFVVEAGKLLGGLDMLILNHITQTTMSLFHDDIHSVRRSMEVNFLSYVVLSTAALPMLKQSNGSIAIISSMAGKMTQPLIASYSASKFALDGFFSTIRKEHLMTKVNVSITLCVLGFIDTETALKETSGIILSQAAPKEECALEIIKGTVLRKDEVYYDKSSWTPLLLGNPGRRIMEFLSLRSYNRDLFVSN
T1 sequence (P16232 whole entry): as above

| Compound | 11β-HSD1 Reductase inhibition [1] | 11β-HSD1 Dehydrogenase inhibition [2] | 11β-HSD2 Dehydrogenase inhibition [4] | other results |
| --- | --- | --- | --- | --- |
| 3α,5α-reduced-11-keto-progesterone | Selective Inhibitor | No Inhibition | – | – |
| C[C@]12CC[C@@H](O)C[C@@H]1CC[C@@H]1[C@@H]2CC[C@]2(C)[C@@H](O)CC[C@@H]12 [3α5α TH-testosterone] | – | – | – | increase in NADPH production [3]: three to five fold increase |
| C[C@@]12CC[C@@H]3[C@H]([C@@H](O)C[C@]4(C=O)[C@@H](C(=O)CO)CC[C@@H]34)[C@@]1(C)CC[C@@H](O)C2 [3α,5α-reduced aldosterone] | No Inhibition | Moderate Inhibitor | Potent Inhibitor | – |
| C[C@]12CC[C@@H](O)C[C@@H]1CC[C@@H]1[C@@H]2C(=O)C[C@]2(C)C(=O)CC[C@@H]12 [3α,5α-reduced-11-keto-androstenedione] | Selective Inhibitor | No Inhibition | – | – |
| C[C@]12CC[C@H](O)C[C@@H]1CC[C@H]1[C@@H]3CC[C@H](O)[C@@]3(C)CC(=O)[C@@H]12 [3α,5α-reduced-11-keto-testosterone] | Selective Inhibitor | No Inhibition | – | – |
| C[C@]12CC[C@H](O)C[C@H]1CC[C@@H]1[C@@H]2[C@@H](O)C[C@]2(C)C(=O)CC[C@H]12 [3α,5α-reduced-11β-OH-androstenedione] | No Inhibition | Moderate Inhibitor | Potent Inhibitor (Non-Selective) | – |
| CC(=O)[C@H]1CC[C@H]2[C@@H]3CC[C@H]4C[C@@H](O)CC[C@]4(C)[C@H]3[C@@H](O)C[C@]12C [3α,5α-reduced-11β-OH-progesterone] | No Inhibition | Potent Inhibitor (Non-Selective) | Potent Inhibitor (Non-Selective) | increase in NADPH production [3, 8]: three to five fold increase |
| C[C@]12CC[C@@H](O)C[C@@H]1CC[C@@H]1[C@@H]2[C@@H](O)C[C@@]2(C)[C@@H]1CC[C@@H]2O [3α,5α-reduced-11β-OH-testosterone] | No Inhibition | Potent Inhibitor (Non-Selective) | Potent Inhibitor (Non-Selective) | – |
| C[C@]12CC[C@@H](O)C[C@@H]1CC[C@@H]1[C@@H]2[C@@H](O)C[C@]2(C)[C@@H](C(=O)CO)CC[C@@H]12 [3α,5α-reduced-corticosterone] | No Inhibition | Potent Inhibitor | Potent Inhibitor | increase in NADPH production [3, 8]: three to five fold increase |
| C[C@]12CC[C@@H](O)C[C@@H]1CC[C@H]1[C@@H]3CC[C@H](C(=O)CO)[C@@]3(C)CC(=O)[C@@H]12 [3α,5α-tetrahydro-11-dehydro-corticosterone] | Potent Inhibitor | No Inhibition | Potent Inhibitor | – |
| CC(=O)[C@H]1CC[C@H]2[C@@H]3CC[C@@H]4C[C@H](O)CC[C@]4(C)[C@H]3CC[C@]12C [3α,5β progesterone, 3α,5β-tetrahydro-progesterone] | – | potent inhibitors | – | effect on the backward reaction of 11β-HSD1 reductase [5]: Neither of these compounds effected the backward reaction |
| C[C@]12CC[C@@H](O)C[C@H]1CC[C@@H]1[C@@H]2CC[C@]2(C)[C@@H](C(=O)CO)CC[C@@H]12 [3α,5β-deoxycorticosterone, 3α,5β-terahydro-deoxycorticosterone] | – | potent inhibitors | – | effect on the backward reaction of 11β-HSD1 reductase [5]: Neither of these compounds effected the backward reaction |
| C[C@]12CCC(=O)C[C@@H]1CC[C@@H]1[C@@H]2[C@@H](O)C[C@]2(C)[C@@H](C(=O)CO)CC[C@@H]12 [5α-dihydro-corticosterone] | No inhibition | Potent Inhibitor | Potent Inhibitor | – |
| C[C@]12CCC(=O)C=C1CC[C@@H]1[C@@H]2C(=O)C[C@]2(C)C(=O)CC[C@@H]12 [11-Keto-androstenedione] | Selective Inhibitor | No Inhibition | No Inhibition | – |
| CC(=O)[C@H]1CC[C@H]2[C@@H]3CCC4=CC(=O)CC[C@]4(C)[C@H]3C(=O)C[C@]12C [11-Keto-progesterone] | Selective Inhibitor | No Inhibition | Potent Inhibitor | ability of 11-dehydro-corticosterone to amplify the contractile response to phenylephrine ([6]; rat aortic rings, 24 h, 11-dehydro-corticosterone 100 nmol/L): diminished; metabolism of 11-dehydro-corticosterone back to corticosterone [7]: decreased |
| C[C@]12CC(=O)[C@H]3[C@@H](CCC4=CC(=O)CC[C@@]43C)[C@@H]1CC[C@@H]2O [11-Keto-testosterone] | Selective Inhibitor | No Inhibition | No Inhibition | – |
| C[C@]12CC(=O)[C@H]3[C@@H](CCC4=CC(=O)CC[C@@]43C)[C@@H]1CC[C@@H]2C(=O)CO [11-dehydro-corticosterone] | – | – | – | amplification of the contractile response to phenylephrine by the steroid [6]: amplified |
| CC(=O)[C@H]1CC[C@H]2[C@@H]3CCC4=CC(=O)CC[C@]4(C)[C@H]3[C@@H](O)C[C@]12C [11β-OH-progesterone] | No Inhibition | Potent Inhibitor (Non-Selective) | – | – |
| C[C@]12C[C@H](O)[C@H]3[C@@H](CCC4=CC(=O)CC[C@@]43C)[C@@H]1CC[C@@H]2O [11β-OH-testosterone] | No Inhibition | Inhibitor (Non-Selective) | Inhibitor (Non-Selective) | – |
| C[C@H](CCC(=O)O)[C@H]1CC[C@H]2[C@@H]3[C@H](O)C[C@@H]4C[C@H](O)CC[C@]4(C)[C@H]3CC[C@]12C [chenodeoxycholic acid] | No Inhibition | potent inhibitors; also recorded: Selective inhibitor | No Inhibition | – |
| C[C@]12C[C@H](O)[C@H]3[C@@H](CCC4=CC(=O)CC[C@@]43C)[C@@H]1CC[C@@H]2C(=O)CO [corticosterone] | – | – | – | amplification of the contractile response to phenylephrine by the steroid [6]: amplified contractile responses |
